Here are results for 13 compounds from patent US12539292B2, “BRM targeting compounds and associated methods of use” (Arvinas Operations, Inc., priority 2018, dated 2026).

SMILES strings stand for the structures. Where only a bound is given, the exact number is not on record here.

Broadly, the DC50 is the midpoint of the concentration-degradation curve. One may read the Dmax as the greatest extent of degradation seen.

The assay deals with T1, BRM (Homo sapiens, UniProt P51531).
T1 construct: In-Cell Western Screen of BRM Degradation in SW1573 Cells; endogenous in cells; host or cells: SW1573
Kind of assay: In-cell Western screen of BRM degradation in SW1573 cells (Dmax and DC50). Format: cell-based. The conditions noted are these: BRM degradation, SW1573 cells; for DC50: read-out: DC50; for Dmax: tested at the top concentration of between 0.3 and 10 μM, read-out: Dmax (%) (% degraded). The gist of the method:
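SW1573 cells were treated overnight (18-20 hours) with compound at 0.1% final DMSO. They were then PFA-fixed, permeabilised with Triton X-100 and immunostained with 800 nm/680 nm secondary antibodies. BRM signal was quantified by LI-COR in-cell Western imaging to derive Dmax and DC50.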

T1 sequence (P51531 whole entry): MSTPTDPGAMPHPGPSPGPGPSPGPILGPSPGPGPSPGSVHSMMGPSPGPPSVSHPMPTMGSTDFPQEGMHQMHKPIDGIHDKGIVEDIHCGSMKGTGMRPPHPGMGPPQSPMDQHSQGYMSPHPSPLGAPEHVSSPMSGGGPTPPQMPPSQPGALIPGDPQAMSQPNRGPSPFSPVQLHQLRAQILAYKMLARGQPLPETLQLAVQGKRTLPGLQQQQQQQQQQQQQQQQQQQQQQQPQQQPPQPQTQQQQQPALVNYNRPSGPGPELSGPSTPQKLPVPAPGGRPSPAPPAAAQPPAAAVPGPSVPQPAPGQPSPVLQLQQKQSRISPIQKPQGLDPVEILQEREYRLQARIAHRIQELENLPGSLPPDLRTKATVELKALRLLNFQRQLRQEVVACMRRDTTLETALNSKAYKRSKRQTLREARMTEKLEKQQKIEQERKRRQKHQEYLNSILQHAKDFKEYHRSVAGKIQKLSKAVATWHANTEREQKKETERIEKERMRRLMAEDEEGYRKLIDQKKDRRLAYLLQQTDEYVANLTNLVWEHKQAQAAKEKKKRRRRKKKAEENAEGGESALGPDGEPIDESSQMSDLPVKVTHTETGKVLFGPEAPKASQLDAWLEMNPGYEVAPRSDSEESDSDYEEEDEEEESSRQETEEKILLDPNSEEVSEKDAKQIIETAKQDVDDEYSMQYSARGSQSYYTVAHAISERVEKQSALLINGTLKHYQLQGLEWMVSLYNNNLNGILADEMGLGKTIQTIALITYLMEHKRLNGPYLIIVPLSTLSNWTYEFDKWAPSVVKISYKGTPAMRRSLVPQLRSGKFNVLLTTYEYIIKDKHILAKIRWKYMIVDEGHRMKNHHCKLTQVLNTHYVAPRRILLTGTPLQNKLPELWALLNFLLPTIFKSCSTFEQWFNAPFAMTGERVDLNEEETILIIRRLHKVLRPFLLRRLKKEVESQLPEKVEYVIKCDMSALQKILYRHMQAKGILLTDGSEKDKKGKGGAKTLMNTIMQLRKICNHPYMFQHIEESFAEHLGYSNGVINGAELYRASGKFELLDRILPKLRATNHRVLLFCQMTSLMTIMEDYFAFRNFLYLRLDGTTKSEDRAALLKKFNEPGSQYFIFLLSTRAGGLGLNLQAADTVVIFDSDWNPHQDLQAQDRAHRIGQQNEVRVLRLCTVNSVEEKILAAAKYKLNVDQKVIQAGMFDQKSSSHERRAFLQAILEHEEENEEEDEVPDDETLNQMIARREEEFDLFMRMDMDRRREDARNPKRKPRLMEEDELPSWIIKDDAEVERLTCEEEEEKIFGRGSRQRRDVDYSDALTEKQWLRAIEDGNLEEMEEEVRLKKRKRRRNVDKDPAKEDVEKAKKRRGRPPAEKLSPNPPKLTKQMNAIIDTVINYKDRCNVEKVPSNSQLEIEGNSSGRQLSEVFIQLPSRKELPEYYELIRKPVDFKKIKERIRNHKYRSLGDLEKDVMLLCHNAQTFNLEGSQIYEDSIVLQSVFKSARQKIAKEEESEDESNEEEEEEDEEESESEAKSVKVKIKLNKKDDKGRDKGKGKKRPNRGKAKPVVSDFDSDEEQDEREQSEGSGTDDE

As for `Cc1ncsc1-c1ccc([C@H](C)NC(=O)[C@@H]2C[C@@H](O)CN2C(=O)[C@H](c2cc(CCCOCCOCCOCCn3cc(-c4cc(-c5ccccc5O)nnc4N)cn3)no2)C(C)C)cc1` [compound 196, (2S,4R)-1-((S)-2-(3-(3-(2-(2-(2-(4-(3-amino-6-(2-hydroxyphenyl)pyridazin-4-yl)-1H-pyrazol-1-yl)ethoxy)ethoxy)ethoxy)propyl)isoxazol-5-yl)-3-methylbutanoyl)-4-hydroxy-N-((S)-1-(4-(4-methylthiazol-5-yl)phenyl)ethyl)pyrrolidine-2-carboxamide], the DC50 is over 0.03 µM and the Dmax is over 75%.
Take `Cc1ncsc1-c1ccc([C@H](C)NC(=O)[C@@H]2C[C@@H](O)CN2C(=O)[C@H](c2cc(OCCN3CCN(CCC#CCn4cc(-c5cc(-c6ccccc6O)nnc5N)cn4)CC3)no2)C(C)C)cn1` [compound 197, (2S,4R)-1-((S)-2-(3-(2-(4-(5-(4-(3-amino-6-(2-hydroxyphenyl)pyridazin-4-yl)-1H-pyrazol-1-yl)pent-3-yn-1-yl)piperazin-1-yl)ethoxy)isoxazol-5-yl)-3-methylbutanoyl)-4-hydroxy-N-((S)-1-(6-(4-methylthiazol-5-yl)pyridin-3-yl)ethyl)pyrrolidine-2-carboxamide]: the DC50 was over 0.03 µM.
With `Cc1ncsc1-c1ccc([C@H](C)NC(=O)[C@@H]2C[C@@H](O)CN2C(=O)[C@H](c2onc(OCCN3CCN(CCOc4cc(N5C6CCC5CN(c5cc(-c7ccccc7O)nnc5N)C6)ccn4)CC3)c2F)C(C)C)cc1` [compound 198, (2S,4R)-1-((2S)-2-(3-(2-(4-(2-((4-(3-(3-amino-6-(2-hydroxyphenyl)pyridazin-4-yl)-3,8-diazabicyclo[3.2.1]octan-8-yl)pyridin-2-yl)oxy)ethyl)piperazin-1-yl)ethoxy)-4-fluoroisoxazol-5-yl)-3-methylbutanoyl)-4-hydroxy-N-((S)-1-(4-(4-methylthiazol-5-yl)phenyl)ethyl)pyrrolidine-2-carboxamide], the DC50 fell in the range of 0.01 to 0.03 µM and the Dmax is over 75%.
Regarding `Cc1ncsc1-c1ccc([C@H](CO)NC(=O)[C@@H]2C[C@@H](O)CN2C(=O)[C@@H](c2cc(OCCN3CCC(O[C@H]4C[C@H](Oc5cc(N6C7CCC6CN(c6cc(-c8ccccc8O)nnc6N)C7)ccn5)C4)CC3)no2)C(C)C)cc1` [compound 199, (2S,4R)-1-((2R)-2-(3-(2-(4-((1r,3R)-3-((4-(3-(3-amino-6-(2-hydroxyphenyl)pyridazin-4-yl)-3,8-diazabicyclo[3.2.1]octan-8-yl)pyridin-2-yl)oxy)cyclobutoxy)piperidin-1-yl)ethoxy)isoxazol-5-yl)-3-methylbutanoyl)-4-hydroxy-N-((R)-2-hydroxy-1-(4-(4-methylthiazol-5-yl)phenyl)ethyl)pyrrolidine-2-carboxamide], the DC50 is under 0.0025 µM and the Dmax is over 75%.
Turning to `Cc1ncsc1-c1ccc([C@H](CO)NC(=O)[C@@H]2C[C@@H](O)CN2C(=O)[C@H](c2cc(OCCN3CCC(O[C@H]4C[C@H](Oc5cc(N6C7CCC6CN(c6cc(-c8ccccc8O)nnc6N)C7)ccn5)C4)CC3)no2)C(C)C)cc1` [compound 200, (2S,4R)-1-((2S)-2-(3-(2-(4-((1r,3S)-3-((4-(3-(3-amino-6-(2-hydroxyphenyl)pyridazin-4-yl)-3,8-diazabicyclo[3.2.1]octan-8-yl)pyridin-2-yl)oxy)cyclobutoxy)piperidin-1-yl)ethoxy)isoxazol-5-yl)-3-methylbutanoyl)-4-hydroxy-N-((R)-2-hydroxy-1-(4-(4-methylthiazol-5-yl)phenyl)ethyl)pyrrolidine-2-carboxamide], the DC50 fell in the range of 0.0025 to 0.01 µM and the Dmax was over 75%.
For `COc1cc(-c2scnc2C)ccc1[C@H](C)NC(=O)[C@@H]1C[C@@H](O)CN1C(=O)[C@H](c1cc(OCCN2CCC(O[C@H]3C[C@H](Oc4cc(N5C6CCC5CN(c5cc(-c7ccccc7O)nnc5N)C6)ccn4)C3)CC2)no1)C(C)C` [compound 201, (2S,4R)-1-((2S)-2-(3-(2-(4-((1r,3S)-3-((4-(3-(3-amino-6-(2-hydroxyphenyl)pyridazin-4-yl)-3,8-diazabicyclo[3.2.1]octan-8-yl)pyridin-2-yl)oxy)cyclobutoxy)piperidin-1-yl)ethoxy)isoxazol-5-yl)-3-methylbutanoyl)-4-hydroxy-N-((S)-1-(2-methoxy-4-(4-methylthiazol-5-yl)phenyl)ethyl)pyrrolidine-2-carboxamide], in that order: 0.01 to 0.03 µM and over 75%.
The like results for `COc1cc(-c2scnc2C)ccc1[C@H](C)NC(=O)[C@@H]1C[C@@H](O)CN1C(=O)[C@@H](c1cc(OCCN2CCC(O[C@H]3C[C@H](Oc4cc(N5C6CCC5CN(c5cc(-c7ccccc7O)nnc5N)C6)ccn4)C3)CC2)no1)C(C)C` [compound 202, (2S,4R)-1-((2R)-2-(3-(2-(4-((1r,3R)-3-((4-(3-(3-amino-6-(2-hydroxyphenyl)pyridazin-4-yl)-3,8-diazabicyclo[3.2.1]octan-8-yl)pyridin-2-yl)oxy)cyclobutoxy)piperidin-1-yl)ethoxy)isoxazol-5-yl)-3-methylbutanoyl)-4-hydroxy-N-((S)-1-(2-methoxy-4-(4-methylthiazol-5-yl)phenyl)ethyl)pyrrolidine-2-carboxamide] were, in that order, under 0.0025 µM and over 75%.
As to `CC(C)[C@@H](C(=O)N1C[C@H](O)C[C@H]1C(=O)N[C@@H](C)c1ccc(C#N)cc1)c1cc(OCCN2CCC(O[C@H]3C[C@H](Oc4cc(N5C6CCC5CN(c5cc(-c7ccccc7O)nnc5N)C6)ccn4)C3)CC2)no1` [compound 203, (2S,4R)-1-((2R)-2-(3-(2-(4-((1r,3R)-3-((4-(3-(3-amino-6-(2-hydroxyphenyl)pyridazin-4-yl)-3,8-diazabicyclo[3.2.1]octan-8-yl)pyridin-2-yl)oxy)cyclobutoxy)piperidin-1-yl)ethoxy)isoxazol-5-yl)-3-methylbutanoyl)-N-((S)-1-(4-cyanophenyl)ethyl)-4-hydroxypyrrolidine-2-carboxamide], the DC50 was under 0.0025 µM and the Dmax is over 75%.
On to `CC(C)[C@H](C(=O)N1C[C@H](O)C[C@H]1C(=O)N[C@@H](C)c1ccc(C#N)cc1)c1cc(OCCN2CCC(O[C@H]3C[C@H](Oc4cc(N5C6CCC5CN(c5cc(-c7ccccc7O)nnc5N)C6)ccn4)C3)CC2)no1` [compound 204, (2S,4R)-1-((2S)-2-(3-(2-(4-((1r,3S)-3-((4-(3-(3-amino-6-(2-hydroxyphenyl)pyridazin-4-yl)-3,8-diazabicyclo[3.2.1]octan-8-yl)pyridin-2-yl)oxy)cyclobutoxy)piperidin-1-yl)ethoxy)isoxazol-5-yl)-3-methylbutanoyl)-N-((S)-1-(4-cyanophenyl)ethyl)-4-hydroxypyrrolidine-2-carboxamide], for which the DC50 was over 0.03 µM and the Dmax was over 75%.
Take `Cc1ncsc1-c1ccc([C@H](C)NC(=O)[C@@H]2C[C@@H](O)CN2C(=O)[C@H](c2cc(OCCN3CCN(CCCCN4CCOC5(CCN(c6cc(-c7ccccc7O)nnc6N)CC5)C4)CC3)no2)C(C)C)cc1` [compound 205, (2S,4R)-1-((S)-2-(3-(2-(4-(4-(9-(3-amino-6-(2-hydroxyphenyl)pyridazin-4-yl)-1-oxa-4,9-diazaspiro[5.5]undecan-4-yl)butyl)piperazin-1-yl)ethoxy)isoxazol-5-yl)-3-methylbutanoyl)-4-hydroxy-N-((S)-1-(4-(4-methylthiazol-5-yl)phenyl)ethyl)pyrrolidine-2-carboxamide]: the DC50 is over 0.03 µM and the Dmax is over 75%.
For `Cc1ncsc1-c1ccc([C@H](C)NC(=O)[C@@H]2C[C@@H](O)CN2C(=O)[C@H](c2cc(OC/C=C/c3ccc(O[C@H]4C[C@H](Oc5cc(N6C7CCC6CN(c6cc(-c8ccccc8O)nnc6N)C7)ccn5)C4)cn3)no2)C(C)C)cn1` [compound 206, (2S,4R)-1-((2S)-2-(3-(((E)-3-(5-((1r,3S)-3-((4-(3-(3-amino-6-(2-hydroxyphenyl)pyridazin-4-yl)-3,8-diazabicyclo[3.2.1]octan-8-yl)pyridin-2-yl)oxy)cyclobutoxy)pyridin-2-yl)allyl)oxy)isoxazol-5-yl)-3-methylbutanoyl)-4-hydroxy-N-((S)-1-(6-(4-methylthiazol-5-yl)pyridin-3-yl)ethyl)pyrrolidine-2-carboxamide], in that order: 0.01 to 0.03 µM and over 75%.
On to `Cc1ncsc1-c1ccc([C@H](C)NC(=O)[C@@H]2C[C@@H](O)CN2C(=O)[C@@H](c2cc(OC/C=C/c3ccc(O[C@H]4C[C@H](Oc5cc(N6C7CCC6CN(c6cc(-c8ccccc8O)nnc6N)C7)ccn5)C4)cn3)no2)C(C)C)cn1` [compound 207, (2S,4R)-1-((2R)-2-(3-(((E)-3-(5-((1r,3R)-3-((4-(3-(3-amino-6-(2-hydroxyphenyl)pyridazin-4-yl)-3,8-diazabicyclo[3.2.1]octan-8-yl)pyridin-2-yl)oxy)cyclobutoxy)pyridin-2-yl)allyl)oxy)isoxazol-5-yl)-3-methylbutanoyl)-4-hydroxy-N-((S)-1-(6-(4-methylthiazol-5-yl)pyridin-3-yl)ethyl)pyrrolidine-2-carboxamide], for which the DC50 was under 0.0025 µM and the Dmax was over 75%.
Take `Cc1ncsc1-c1ccc([C@H](C)NC(=O)[C@@H]2C[C@@H](O)CN2C(=O)[C@H](c2onc(OCCN3CCC(O[C@H]4C[C@H](Oc5cc(N6C7CCC6CN(c6cc(-c8ccccc8O)nnc6N)C7)ccn5)C4)CC3)c2F)C(C)C)cc1` [compound 208, (2S,4R)-1-((2S)-2-(3-(2-(4-((1r,3S)-3-((4-(3-(3-amino-6-(2-hydroxyphenyl)pyridazin-4-yl)-3,8-diazabicyclo[3.2.1]octan-8-yl)pyridin-2-yl)oxy)cyclobutoxy)piperidin-1-yl)ethoxy)-4-fluoroisoxazol-5-yl)-3-methylbutanoyl)-4-hydroxy-N-((S)-1-(4-(4-methylthiazol-5-yl)phenyl)ethyl)pyrrolidine-2-carboxamide]: the DC50 was over 0.03 µM and the Dmax is over 75%.
